Laboratory results: PubChem BioAssay (NCI)
Several values for one entry are separate records, joined by “and”; a condition that tells them apart may be missing. Equal entries are not always repeated.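 These data come from cells grown in 96-well plates and exposed to compound for 48 hours at five concentrations. GI50 = concentration required for 50% inhibition of growth. Definition used: TGI = concentration required for complete inhibition of growth.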 Where a SMILES comes first, the peptide text is derived from it. [ ]: non-standard residue; d: D form. The star is where a group is joined. ξ: configuration not given here. X6 = FC(F)(F)c1cc(NC(=S)*)cc(C(F)(F)F)c1; ξF = NC(Cc1ccccc1)C(=O)O

Columns and labels:
Experiment in all cases: DTP human tumour cell line panel, 48 h
OVCAR-4 ovarian = system: OVCAR-4 ovarian
EKVX NSCLC = system: EKVX NSCLC
786-0 renal = system: 786-0 renal
SK-OV-3 ovarian = system: SK-OV-3 ovarian
UACC-62 melanoma = system: UACC-62 melanoma
HCC-2998 colon = system: HCC-2998 colon
PC-3 prostate = system: PC-3 prostate
HL-60(TB) leukemia = system: HL-60(TB) leukemia
U251 CNS = system: U251 CNS
SN12C renal = system: SN12C renal

SMILES: NC(=O)c1cccc2cn(-c3ccc([C@@H]4CCCNC4)cc3)nc12
- GI50 (OVCAR-4 ovarian): 16.6 µM
- TGI (OVCAR-4 ovarian): 41.5 µM
- GI50 (EKVX NSCLC): 19.7 µM
- TGI (EKVX NSCLC): 64.2 µM
- GI50 (786-0 renal): 16.2 µM
- TGI (786-0 renal): 33 µM
- GI50 (SK-OV-3 ovarian): 12.6 µM
- TGI (SK-OV-3 ovarian): 38.2 µM
- GI50 (UACC-62 melanoma): 13.6 µM
- TGI (UACC-62 melanoma): 27 µM
- GI50 (HCC-2998 colon): 14.1 µM
- TGI (HCC-2998 colon): 34.3 µM
- GI50 (PC-3 prostate): 16.1 µM
- TGI (PC-3 prostate): > 100 µM
- GI50 (HL-60(TB) leukemia): 15.7 µM
- TGI (HL-60(TB) leukemia): 34.6 µM
- GI50 (U251 CNS): 12.6 µM
- TGI (U251 CNS): 29 µM
- GI50 (SN12C renal): 9.15 µM
- TGI (SN12C renal): 56.8 µM

SMILES: COC(=O)[C@@H](NC(=O)CNC(=O)[C@H]1CCCN1C(=O)C(Cc1ccccc1)NC(=S)Nc1cc(C(F)(F)F)cc(C(F)(F)F)c1)C(C)C (stereo partly specified) (X6-[ξF][dP]GV-OMe)
- GI50 (OVCAR-4 ovarian): 3.17 µM
- TGI (OVCAR-4 ovarian): 17.6 µM
- GI50 (EKVX NSCLC): 3.12 µM
- TGI (EKVX NSCLC): 22.3 µM
- GI50 (786-0 renal): 2.12 µM
- TGI (786-0 renal): 4.34 µM
- GI50 (SK-OV-3 ovarian): 2.98 µM
- TGI (SK-OV-3 ovarian): 8.26 µM
- GI50 (UACC-62 melanoma): 1.79 µM
- TGI (UACC-62 melanoma): 3.98 µM
- GI50 (HCC-2998 colon): 3.39 µM
- TGI (HCC-2998 colon): 11.9 µM
- GI50 (PC-3 prostate): 2.48 µM
- GI50 (HL-60(TB) leukemia): 3.58 µM
- TGI (HL-60(TB) leukemia): 12.7 µM
- GI50 (SN12C renal): 1.85 µM
- TGI (SN12C renal): 4.26 µM

SMILES: COc1ccc(C(=O)Cn2c(C(=O)c3ccccc3)nc(-c3ccc(OC)cc3)c2-c2ccc(OC)cc2)cc1
- GI50 (OVCAR-4 ovarian): > 100 µM
- TGI (OVCAR-4 ovarian): > 100 µM
- GI50 (EKVX NSCLC): > 100 µM
- TGI (EKVX NSCLC): > 100 µM
- GI50 (786-0 renal): 46.1 µM
- TGI (786-0 renal): > 100 µM
- GI50 (SK-OV-3 ovarian): 97.8 µM
- TGI (SK-OV-3 ovarian): > 100 µM
- GI50 (UACC-62 melanoma): 98.3 µM
- TGI (UACC-62 melanoma): > 100 µM
- GI50 (HCC-2998 colon): > 100 µM
- TGI (HCC-2998 colon): > 100 µM
- GI50 (PC-3 prostate): > 100 µM
- TGI (PC-3 prostate): > 100 µM
- GI50 (HL-60(TB) leukemia): > 100 µM
- TGI (HL-60(TB) leukemia): > 100 µM
- GI50 (U251 CNS): 64.9 µM
- TGI (U251 CNS): > 100 µM
- GI50 (SN12C renal): > 100 µM
- TGI (SN12C renal): > 100 µM

SMILES: COC1CCC(N2C(=O)CNc3ncc(-c4ccc(C(C)(C)O)nc4)nc32)CC1 (stereo unspecified)
- GI50 (OVCAR-4 ovarian): 0.568 µM and 0.12 µM
- TGI (OVCAR-4 ovarian): > 7.88 µM and 1.07 µM
- GI50 (EKVX NSCLC): 1.21 µM and 0.186 µM
- TGI (EKVX NSCLC): > 8.47 µM and 6.7 µM
- GI50 (786-0 renal): 0.962 µM and 0.243 µM
- TGI (786-0 renal): > 32.1 µM
- GI50 (SK-OV-3 ovarian): 0.464 µM and 0.0716 µM
- TGI (SK-OV-3 ovarian): 3.93 µM and 0.551 µM
- GI50 (UACC-62 melanoma): 0.237 µM and 0.111 µM
- TGI (UACC-62 melanoma): 2.08 µM and 1.26 µM
- GI50 (HCC-2998 colon): 1.98 µM and 0.306 µM
- TGI (HCC-2998 colon): > 39.2 µM
- GI50 (PC-3 prostate): 0.322 µM and 0.108 µM
- TGI (PC-3 prostate): 4.2 µM and > 33.5 µM
- GI50 (HL-60(TB) leukemia): 2.88 µM and 1.09 µM
- TGI (HL-60(TB) leukemia): > 10 µM and 30.8 µM
- GI50 (U251 CNS): 1.41 µM and 1.06 µM
- TGI (U251 CNS): > 33.4 µM
- GI50 (SN12C renal): 0.794 µM and 0.315 µM
- TGI (SN12C renal): > 43.2 µM

SMILES: O=C(Nc1ccc(Cl)c(Cl)c1)Nc1ccc(Cl)c(Cl)c1
- GI50 (OVCAR-4 ovarian): 2.98 µM and 3.57 µM
- TGI (OVCAR-4 ovarian): 14.6 µM and 47.7 µM
- GI50 (EKVX NSCLC): 2.36 µM
- TGI (EKVX NSCLC): 11.1 µM
- GI50 (786-0 renal): 3.79 µM and 3.21 µM
- TGI (786-0 renal): 14.4 µM and 13 µM
- GI50 (SK-OV-3 ovarian): 3.39 µM and 3.82 µM
- TGI (SK-OV-3 ovarian): 11.6 µM and 15.9 µM
- GI50 (UACC-62 melanoma): 2.88 µM and 2.38 µM
- TGI (UACC-62 melanoma): 13.4 µM and 10.4 µM
- GI50 (HCC-2998 colon): 3.71 µM and 3.01 µM
- TGI (HCC-2998 colon): 13.4 µM and 11.5 µM
- GI50 (PC-3 prostate): 2.82 µM and 1.78 µM
- TGI (PC-3 prostate): 12.3 µM and 9.82 µM
- GI50 (HL-60(TB) leukemia): 2.58 µM and 2.16 µM
- TGI (HL-60(TB) leukemia): 7.24 µM and 6.68 µM
- GI50 (U251 CNS): 2.67 µM and 1.77 µM
- TGI (U251 CNS): 11.2 µM and 5.14 µM
- GI50 (SN12C renal): 3.1 µM and 2.83 µM
- TGI (SN12C renal): 11.8 µM and 10.7 µM

SMILES: O=C(/C=C/C12c3ccccc3C(c3ccccc31)C1C(=O)NC(=O)C12)c1ccncc1 (stereo unspecified)
- GI50 (OVCAR-4 ovarian): 2.65 µM
- TGI (OVCAR-4 ovarian): 9.7 µM
- GI50 (EKVX NSCLC): 6.02 µM
- TGI (EKVX NSCLC): 20.8 µM
- GI50 (786-0 renal): 1.94 µM
- TGI (786-0 renal): 4.76 µM
- GI50 (SK-OV-3 ovarian): 13.2 µM
- TGI (SK-OV-3 ovarian): 26.7 µM
- GI50 (UACC-62 melanoma): 1.87 µM
- TGI (UACC-62 melanoma): 3.88 µM
- GI50 (HCC-2998 colon): 1.87 µM
- TGI (HCC-2998 colon): 3.68 µM
- GI50 (PC-3 prostate): 1.97 µM
- TGI (PC-3 prostate): 5.4 µM
- GI50 (HL-60(TB) leukemia): 1.76 µM
- TGI (HL-60(TB) leukemia): 6.1 µM
- GI50 (U251 CNS): 1.62 µM
- TGI (U251 CNS): 3.34 µM
- GI50 (SN12C renal): 2.55 µM
- TGI (SN12C renal): 12 µM

SMILES: NC(Cc1c[nH]c2c(O)cccc12)C(=O)O (stereo unspecified)
- GI50 (OVCAR-4 ovarian): > 100 µM
- TGI (OVCAR-4 ovarian): > 100 µM
- GI50 (EKVX NSCLC): > 100 µM
- TGI (EKVX NSCLC): > 100 µM
- GI50 (786-0 renal): > 100 µM
- TGI (786-0 renal): > 100 µM
- GI50 (SK-OV-3 ovarian): > 100 µM
- TGI (SK-OV-3 ovarian): > 100 µM
- GI50 (UACC-62 melanoma): > 100 µM
- TGI (UACC-62 melanoma): > 100 µM
- GI50 (HCC-2998 colon): > 100 µM
- TGI (HCC-2998 colon): > 100 µM
- GI50 (PC-3 prostate): > 100 µM
- TGI (PC-3 prostate): > 100 µM
- GI50 (HL-60(TB) leukemia): > 100 µM
- TGI (HL-60(TB) leukemia): > 100 µM
- GI50 (U251 CNS): > 100 µM
- TGI (U251 CNS): > 100 µM
- GI50 (SN12C renal): > 100 µM
- TGI (SN12C renal): > 100 µM

SMILES: CCCCOC(=O)C1OC(O[C@H]2CCC3(C)C(CCC4(C)C3CC=C3C5CC(C)(C)CCC5(C(=O)O)CC[C@]34C)C2(C)C)C(OC2OC(CO)C(O)C(O)C2O)C(OC2OC(CO)C(O)C(O)C2O)C1O (stereo partly specified)
- GI50 (EKVX NSCLC): 24.4 µM
- TGI (EKVX NSCLC): 49.7 µM
- GI50 (786-0 renal): 26.2 µM
- TGI (786-0 renal): 70.9 µM
- GI50 (UACC-62 melanoma): 20.9 µM
- TGI (UACC-62 melanoma): 36.1 µM
- GI50 (HCC-2998 colon): 21.8 µM
- TGI (HCC-2998 colon): 38.1 µM
- GI50 (PC-3 prostate): 34.7 µM
- TGI (PC-3 prostate): > 100 µM
- GI50 (HL-60(TB) leukemia): 22.3 µM
- TGI (HL-60(TB) leukemia): 52 µM
- GI50 (U251 CNS): 17.9 µM
- TGI (U251 CNS): 31.8 µM
- GI50 (SN12C renal): 21.8 µM
- TGI (SN12C renal): 40 µM

SMILES: COc1cc(Cc2cnc(/N=C3\C(=O)N(CN4CCN(c5c(F)cc6c(=O)c(C(=O)O)cn(C7CC7)c6c5OC)CC4C)c4ccc(F)cc43)nc2N)cc(OC)c1OC (stereo unspecified)
- GI50 (EKVX NSCLC): 21.9 µM
- TGI (EKVX NSCLC): 56.6 µM
- GI50 (786-0 renal): 11.1 µM
- TGI (786-0 renal): 23.1 µM
- GI50 (SK-OV-3 ovarian): 15 µM
- TGI (SK-OV-3 ovarian): 43.1 µM
- GI50 (UACC-62 melanoma): 12.6 µM
- TGI (UACC-62 melanoma): 26 µM
- GI50 (HCC-2998 colon): 12.6 µM
- TGI (HCC-2998 colon): 26.1 µM
- GI50 (PC-3 prostate): 13 µM
- TGI (PC-3 prostate): 25.7 µM
- GI50 (HL-60(TB) leukemia): 3.28 µM
- TGI (HL-60(TB) leukemia): > 100 µM
- GI50 (U251 CNS): 8.79 µM
- TGI (U251 CNS): 21 µM
- GI50 (SN12C renal): 15.6 µM
- TGI (SN12C renal): 31.1 µM
